Measurements: patent US20250114313A1, “OLIGO-BENZAMIDE ANALOGS AND THEIR USE IN CANCER TREATMENT” (BOARD OF REGENTS, THE UNIVERSITY OF TEXAS SYSTEM, priority 2022, published 2025)
Like-named read-outs stand apart in the source and are kept apart here.

Tests used:
[1] = tested on: ERα-positive cell lines; assay: CellTiter-Glo assay, ERα-positive cell lines; type: cell-based; details: Homo sapiens, read-out: anti-proliferative IC50, CellTiter-Glo
Description: (§1) Cell viability assays: Cells were seeded in 96-well plates (2×10^3 cells/well) one day before the treatment. Cells were treated with varying concentrations of ERX-41 or ERX-11 analogs for 3-6 days. Then effects of ERX-41 or ERX-11 analogs on cell viability were measured in triplicate or sextuplicate with multiple biological replicates using the WST-1 (Promega), MTT as previously described^33 or CellTiter-Glo 2.0 (Promega) assays.

[2] = tested on: LAL; assay: Biotinylated compound pull down of LAL from SUM-159 lysates; type: binding, Human
Description: The lysate was incubated with biotinylated-ERX-11 or biotinylated-ERX-41 overnight, followed by one-hour incubation with M-270 streptavidin Dynabeads. After four times of washes with lysis buffer, samples were eluted by boiling in 2× Laemmli sample buffer. Bound proteins were resolved in SDS-PAGE followed by western blotting.

[3] = tested on: MDA-MB-231 cells with LIPA KO; assay: CellTiter-Glo response of MDA-MB-231 knockout clones; type: cell-based, Human
Description: as §1
CRISPR Screen: Human Brunello CRISPR knockout pooled library was purchased from Addgene (Addgene #73178) (via David Root and John Doench). The library containing lentivirus was transduced into cells in biological replicates or triplicates at a multiplicity of infection (MOI) of ˜0.5 and a minimum of 500× coverage. Two days later after transduction, uninfected cells were removed with puromycin selection. The library containing cells was treated with vehicle or ERX-41 for 2 weeks. Genomic DNA was extracted from same number of cells. The sgRNA cassette retrieved by PCR, followed by Next Generation Sequencing (NGS). NGS data was analyzed by MAGeCK (Li et al., Genome Biology, 2014 PMID: 25476604).
Lentiviral constructs cloning: LentiCRISPRv2 vector was used for CRSPR KO experiments. sgRNAs, which were chosen from human CRISPR knockout pooled library, were cloned into lentiCRISPRv2 vector^34. […]

[4] = tested on: TNBC cells (SUM-159, MDA-MB-231); assay: MTT cell viability, TNBC cells; type: cell-based, Human; details: for IC50: MTT cell viability assays, read-out: antiproliferative IC50 against TNBC cells
Description: as §1

[5] = tested on: ERα+ breast PDX (WHIM-20); assay: ERα+ breast PDX WHIM-20; type: in vivo, NSG mice; details: 10 mg/kg daily
Description: Animal Studies: All animal experiments were performed using UTHSA and UTSW IACUC approved protocols. For cell based xenograft tumor assays, TNBC cells (2×10^5-2×10^6) were mixed with an equal volume of matrigel and implanted in the mammary fat pads of 6-week-old female athymic nude mice as described^33. BALB/c mice were used for D2A1 syngeneic model. Once tumors reached measurable size, mice were divided into control (vehicle) and ERX-41 (10 mg/kg/oral) treatment groups. Mice bearing TNBC PDX tumors were purchased from Jackson laboratory (TM00089; TM00096; TM00098). TNBC PDX line UTPDX0001 establishment was earlier described^38. WHIM-20 ER+PDX model was purchased from Horizon Labs. OCa-PDX-38 was received from UTHSA ObGyn tissue procurement core. When tumors reached ˜750 mm^3 they were dissected into 2 mm^3 pieces and implanted into the mammary fat pads of 6 weeks old female SCID or NSG mice. When the tumor volume reached ˜200 mm^3, mice were randomized for treatment. The mice were monitored daily for adverse toxic effects and tumor volume was measured every 3-4 days using calipers. For establishing ES2 tumors, ES2/GFP/LUC cells were injected i.p. and tumors were measured twice a week using Xenogen in vivo imaging system. […] The mice were monitored daily for adverse toxic effects. […] The sections were scored by two independent evaluators blinded to the patient's clinical status.

[6] = tested on: ERα+ breast, glioblastoma, pancreatic and ovarian cancer cell lines; assay: CTG dose response in other cancer cell lines; type: cell-based
Description: as §1

Compound: CC(C)COc1cc(C(=O)Nc2ccc(C(=O)N[C@H]3CC[C@H](C)CC3)cc2OCC(C)C)ccc1NC(=O)c1ccc([N+](=O)[O-])c(OCCO)c1 [ERX-41]
- IC50 [1]: 0.1 to 0.125 µM
- pulldown of LIPA constructs ([2]; biotinylated ERX-41, WT, H274Y, ΔLXXLL, L242P): interaction between ERX-41 and proteins encoded by WT-LIPA and H274Y MT-LIPA but not ΔLXXLL MT-LIPA or L242P MT-LIPA
- binding to LAL in TNBC cells ([2]; biotinylated compound, streptavidin pull down): binds to LAL
- effect of LIPA knockout on cytotoxic response [3]: abrogate the cytotoxic response to ERX-41
- IC50 ([4]; Homo sapiens): 0.1 to 0.125 µM
- IC50 [4]: 0.1 µM
- enhancement of potency in TNBC, ERX-41 vs ERX-11 ([4]; from IC50>10 μM to 100 nM): > 100 fold
- activity against WHIM-20 PDX [5]: has activity against
- responsiveness of other cancer cell lines in vitro [6]: responsiveness to ERX-41 in vitro
